Reference: patent publication US9439920B2, “Composition for the management of nausea and vomiting” (Duchesnay Inc., priority 2013, dated 2016)

Legend:
Assay type in all cases: in vivo, human
[1] = test system: pregnant women suffering from nausea and vomiting of pregnancy; experiment: Randomized controlled efficacy trial of Diclectin vs. placebo in pregnant women: plasma levels vs PUQE score; conditions: pregnant women treated with Diclectin for 14 days
Method: A randomized controlled efficacy trial of Diclectin® vs. placebo in pregnant women was carried out as follows, with the results shown in FIG. 1.
To assess the plasma levels of Doxylamine and PLP and the severity of nausea and vomiting of pregnancy symptoms in pregnant women treated with Diclectin®.
The demographic and medical characteristics of the subjects are as described in Koren et al., Am J Obstet Gynecol 2010; 203(6):571.e1-7.
The study design is as described in Koren et al., 2010, supra. Briefly, a randomized, double-blind, multicenter placebo controlled trial studying pregnant women suffering from nausea and vomiting of pregnancy, analyzed by intention to treat. Women received Diclectin (n=131) or placebo (n=125) for 14 days. Nausea and vomiting of pregnancy symptoms were evaluated daily using the pregnancy unique quantification of emesis scale (PUQE-24, Ebrahimi et al., J Obstet Gynaecol Can. 2009 September; 31(9):803-7).

[2] = Randomized controlled bioavailability study in healthy women, three way cross over (Example 2)
From the text: Three Way Cross Over Design.
Bioavailability; Tmax, Cmax and AUC0-t between each treatment.

[3] = Another study with different doses of R5P (5, 10 or 20 mg) in healthy women; conditions: 8 healthy women, controls not administered with R5P
Method: In another study, different doses of R5P were tested: 5, 10 or 20 mg of R5P (i.e. equivalent to the formulations administered to Treatment group C above, with the exception that 5, 10 or 20 mg of R5P was used rather than 40 mg R5P; 8 healthy women for each dose), and the PLP levels were compared to those measured in control healthy women not administered with R5P (24 subjects, equivalent to Treatment group A above).

[4] = co-administration of 40 mg of R5P

PLP levels at 12h [2, 4]	effect on PLP levels relative to controls ([3]; 5 mg of R5P)	effect on PLP levels relative to controls ([3]; 10 mg of R5P)	SMILES	relation of average plasma concentration to severity of NVP (PUQE score) [1]	general improvement in the pharmacokinetic profile of PLP ([2]; administration of R5P)	increase in the plasma level of PLP (AUC 0-2 h) following administration of Pyridoxine [2, 4]	PLP concentration (using AUC) over the period 0-12 h ([2]; plasma, healthy women, fasted, compared with Diclectin (PA_DR), one-way ANOVA P>0.05)	effect on pharmacokinetics of PLP relative to controls ([3]; 20 mg of R5P)
–	–	–	CN(C)CCOC(C)(c1ccccc1)c1ccccn1 (stereo not drawn) [Doxylamine, reference compound]	correlates with a decrease in the severity of the NVP	–	–	–	–
does not significantly affect	no significant effect	no significant effect	Cc1cc2nc3c(=O)[nH]c(=O)nc-3n(C[C@H](O)[C@H](O)[C@H](O)COP(=O)(O)O)c2cc1C [R5P, riboflavin-5-phosphate]	–	less inter-subject variations and decreased time to reach steady-state PLP levels	faster increase in the plasma level of PLP	did not increase PLP levels significantly	some improvement in the pharmacokinetics of PLP
–	–	–	Cc1ncc(COP(=O)(O)O)c(C=O)c1O [PLP, Pyridoxal 5-phosphate]	correlates with a decrease in the severity of the NVP	–	–	–	–
